Patent publication US8143374B2, “Polypeptide derivatives of parathyroid hormone (PTH)” (The General Hospital Corporation, priority 2006, dated 2012)
Several values for one entry are separate records, joined by “and”; a condition that tells them apart may be missing. Equal entries are not always repeated. Where two headings read alike, the source gives them in different places. Where a SMILES comes first, the peptide text is derived from it. Where no end group is shown, it is not given here. [ ]: non-standard residue; d: D form. Apa = (S)-2-amino-4[(2-amino)pyrimidinyl]methylalanine; Phe(4-guanidino) = N=C(N)Nc1ccc(C[C@H](N)C(=O)O)cc1; Cha = N[C@@H](CC1CCCCC1)C(=O)O; Orn = NCCC[C@H](N)C(=O)O

Target: T1, PTHR-delNt (Homo sapiens, UniProt Q03431, DEL24-181)
T1 construct: expressed in transfected cells; host or cells: COS-7 cells, transient co-transfection; membranes prepared
T1 sequence (Q03431 with tags, fused parts or gaps DEL24-181): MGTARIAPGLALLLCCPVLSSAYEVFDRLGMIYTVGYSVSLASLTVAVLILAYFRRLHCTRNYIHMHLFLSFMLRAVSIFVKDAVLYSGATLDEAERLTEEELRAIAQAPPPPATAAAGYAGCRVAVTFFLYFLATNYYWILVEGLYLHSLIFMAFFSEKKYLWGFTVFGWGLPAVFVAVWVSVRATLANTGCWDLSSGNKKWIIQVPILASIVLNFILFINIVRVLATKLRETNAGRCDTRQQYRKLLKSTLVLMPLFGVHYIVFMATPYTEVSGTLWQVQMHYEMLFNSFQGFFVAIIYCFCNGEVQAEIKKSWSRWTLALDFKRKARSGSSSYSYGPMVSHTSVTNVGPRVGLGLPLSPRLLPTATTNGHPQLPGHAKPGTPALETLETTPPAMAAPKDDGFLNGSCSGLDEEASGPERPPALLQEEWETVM
Experiment: Competition binding in COS-7 cell membranes with 125I-[Aib1,3,M]PTH(1-15)NH2 tracer
Conditions: for reduction (alteration) of binding affinity for PTHR-delNt relative to parent peptide: versus the respective parent peptide; for IC50: COS-7 membranes cotransfected with negative-dominant Gαs
How it was run: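 Membranes (20 µg/well) from COS-7 cells co-transfected with human PTHR lacking residues 24–181 plus dominant-negative Gαs, incubated 90 min at 21 °C with 125I-[Aib1,3,M]PTH(1-15)NH2 and unlabeled peptide (3×10^−9 to 1×10^−5 M), then filtered and gamma-counted. Non-specific binding with 1×10^−6 M [Aib1,3,M]PTH(1-15)NH2; IC50 by four-parameter logistic fit, extrapolated to reference maximal inhibition where incomplete.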

[1] = [Ala1,Arg19]hPTH(1-31)NH2 analogs, read-out: PTHR-delNT (COS-7) IC50
[2] = hPTH(1-31)NH2 analogs, read-out: PTHR-delNT (COS-7) IC50

Compound	reduction (alteration) of binding affinity for PTHR-delNt relative to parent peptide (COS-7 membranes)	IC50 [2] [µM]	further results
CC[C@H](C)[C@H](NC(=O)[C@H](CCC(=O)O)NC(=O)[C@H](CO)NC(=O)[C@@H](NC(=O)[C@H](C)N)C(C)C)C(=O)N[C@@H](CCC(N)=O)C(=O)N[C@@H](CC(C)C)C(=O)N[C@@H](CCSC)C(=O)N[C@@H](Cc1c[nH]cn1)C(=O)N[C@@H](CC(N)=O)C(=O)N[C@@H](CC(C)C)C(=O)NCC(=O)N[C@@H](CCCCN)C(=O)N[C@@H](Cc1c[nH]cn1)C(=O)N[C@@H](CC(C)C)C(=O)N[C@@H](CC(N)=O)C(=O)N[C@@H](CO)C(=O)N[C@@H](CCSC)C(=O)N[C@@H](CCCNC(=N)N)C(=O)N[C@@H](CC1CCCCC1)C(=O)N[C@H](C(=O)N[C@@H](CCC(=O)O)C(=O)N[C@@H](Cc1c[nH]c2ccccc12)C(=O)N[C@@H](CC(C)C)C(=O)N[C@@H](CCCNC(=N)N)C(=O)N[C@@H](CCCCN)C(=O)N[C@@H](CCCCN)C(=O)N[C@@H](CC(C)C)C(=O)N[C@@H](CCC(N)=O)C(=O)N[C@@H](CC(=O)O)C(=O)N[C@H](C(N)=O)C(C)C)C(C)C [Arg^20→Cha, AlaValSerGluIleGlnLeuMetHisAsnLeuGlyLysHisLeuAsnSerMetArgChaValGluTrpLeuArgLysLysLeuGlnAspVal] (H-AVSEIQLMHNLGKHLNSMR[Cha]VEWLRKKLQDV-NH2; N-terminus assumed)	three-fold or less	–	IC50 [1]: 0.632 ± 0.079 µM
CC[C@H](C)[C@H](NC(=O)[C@H](CCC(=O)O)NC(=O)[C@H](CO)NC(=O)[C@@H](NC(=O)[C@H](C)N)C(C)C)C(=O)N[C@@H](CCC(N)=O)C(=O)N[C@@H](CC(C)C)C(=O)N[C@@H](CCSC)C(=O)N[C@@H](Cc1c[nH]cn1)C(=O)N[C@@H](CC(N)=O)C(=O)N[C@@H](CC(C)C)C(=O)NCC(=O)N[C@@H](CCCCN)C(=O)N[C@@H](Cc1c[nH]cn1)C(=O)N[C@@H](CC(C)C)C(=O)N[C@@H](CC(N)=O)C(=O)N[C@@H](CO)C(=O)N[C@@H](CCSC)C(=O)N[C@@H](CCCNC(=N)N)C(=O)N[C@@H](CCCNC(=N)N)C(=O)N[C@H](C(=O)N[C@@H](CCC(=O)O)C(=O)N[C@@H](Cc1c[nH]c2ccccc12)C(=O)N[C@@H](CC(C)C)C(=O)N[C@@H](CCCNC(=N)N)C(=O)N[C@@H](CCCCN)C(=O)N[C@@H](CCCCN)C(=O)N[C@@H](CC(C)C)C(=O)N[C@@H](CCC(N)=O)C(=O)N[C@@H](CC1CCCCC1)C(=O)N[C@H](C(N)=O)C(C)C)C(C)C [Asp^30→Cha] (H-AVSEIQLMHNLGKHLNSMRRVEWLRKKLQ[Cha]V-NH2; N-terminus assumed)	–	–	IC50 [1]: 0.305 ± 0.126 µM
AVSEIQLMHNLGKHLNSMERVEWLRKKLQDV-NH2 [Arg^19→Glu]	50 fold and 90 fold	–	–
AVSEIQLMHNLGKHLNSMRREEWLRKKLQDV-NH2 [Val^21→Glu]	about four-fold	–	IC50 (PTHR-delNT (COS-7) IC50, [Ala1,Arg19]hPTH(1-31)NH2 analogs): 1.61 µM
AVSEIQLMHNLGKHLNSMRRVEWERKKLQDV-NH2 [Leu^24→Glu]	less than three-fold	–	effect on binding to PTHR-delNt (in words) (COS-7 membranes): only mildly impaired binding to PTHR-delNt; IC50 [1]: 1.04 µM
AVSEIQLMHNLGKHLNSMRRVEWLEKKLQDV-NH2 [Arg^25→Glu]	about four-fold	–	IC50 [1]: 1.63 µM
AVSEIQLMHNLGKHLNSMRRVEWLREKLQDV-NH2 [Lys^26→Glu]	–	–	IC50 [1]: 0.832 ± 0.215 µM
AVSEIQLMHNLGKHLNSMRRVEWLRKELQDV-NH2 [Lys^27→Glu]	–	–	IC50 [1]: 1.27 µM
SVSEIQLMHNLGKHLNSMEAVEWLRKKLQDV-NH2 [Arg^20→Ala]	approximate five-fold reduction	19.3	–
SVSEIQLMHNLGKHLNSMEEVEWLRKKLQDV [Arg^20→Glu]	less than three-fold	14.7	reduction (alteration) of binding affinity for PTHR-delNt relative to parent peptide (COS-7 membranes, listed as Arg^20 to Glu substitution in PTH(1-31)NH2): approximately four-fold reduction; IC50 [1]: 0.776 ± 0.38 µM
SVSEIQLMHNLGKHLNSMEKVEWLRKKLQDV-NH2 [Arg^20→Lys]	–	7.11	–
SVSEIQLMHNLGKHLNSMEQVEWLRKKLQDV-NH2 [Arg^20→Gln]	–	10.3	–
SVSEIQLMHNLGKHLNSMERVAWLRKKLQDV-NH2 [Glu^22→Ala]	–	5.86	–
SVSEIQLMHNLGKHLNSMERVEALRKKLQDV-NH2 [Trp^23→Ala]	only two-fold	7.36	–
SVSEIQLMHNLGKHLNSMERVEWARKKLQDV-NH2 [Leu^24→Ala]	only two-fold	8.76	–
SVSEIQLMHNLGKHLNSMERVEWLAKKLQDV-NH2 [Arg^25→Ala]	–	7.18	–
SVSEIQLMHNLGKHLNSMERVEWLRAKLQDV-NH2 [Lys^26→Ala]	–	6.21	–
SVSEIQLMHNLGKHLNSMERVEWLRKALQDV-NH2 [Lys^27→Ala]	–	7.29	–

More lines, in order of falling IC50 [2], values ahead:

reduction (alteration) of binding affinity for PTHR-delNt relative to parent peptide (COS-7 membranes)	IC50 [2] [µM]	Compound	further results
–	5.74	Arg^20→Apa: hPTH(1-31)NH2 analog with Arg^20 replaced by (S)-2-amino-4[(2-amino)pyrimidinyl]methylalanine (Apa) (SVSEIQLMHNLGKHLNSME[Apa]VEWLRKKLQDV-NH2)	–
–	5.69	SVSEIQLMHNLGKHLNSMERAEWLRKKLQDV-NH2 [Val^21→Ala]	–
–	5.53	CC[C@H](C)[C@H](NC(=O)[C@H](CCC(=O)O)NC(=O)[C@H](CO)NC(=O)[C@@H](NC(=O)[C@@H](N)CO)C(C)C)C(=O)N[C@@H](CCC(N)=O)C(=O)N[C@@H](CC(C)C)C(=O)N[C@@H](CCSC)C(=O)N[C@@H](Cc1c[nH]cn1)C(=O)N[C@@H](CC(N)=O)C(=O)N[C@@H](CC(C)C)C(=O)NCC(=O)N[C@@H](CCCCN)C(=O)N[C@@H](Cc1c[nH]cn1)C(=O)N[C@@H](CC(C)C)C(=O)N[C@@H](CC(N)=O)C(=O)N[C@@H](CO)C(=O)N[C@@H](CCSC)C(=O)N[C@@H](CCC(=O)O)C(=O)N[C@@H](CCCN)C(=O)N[C@H](C(=O)N[C@@H](CCC(=O)O)C(=O)N[C@@H](Cc1c[nH]c2ccccc12)C(=O)N[C@@H](CC(C)C)C(=O)N[C@@H](CCCNC(=N)N)C(=O)N[C@@H](CCCCN)C(=O)N[C@@H](CCCCN)C(=O)N[C@@H](CC(C)C)C(=O)N[C@@H](CCC(N)=O)C(=O)N[C@@H](CC(=O)O)C(=O)N[C@H](C(N)=O)C(C)C)C(C)C [Arg^20→Orn] (H-SVSEIQLMHNLGKHLNSME[Orn]VEWLRKKLQDV-NH2; N-terminus assumed)	–
–	4.91	SVSEIQLMHNLGKHLNSMERVEWLRKKLQDA-NH2 [Val^31→Ala]	–
–	3.46	SVSEIQLMHNLGKHLNSMERVEWLRKKAQDV-NH2 [Leu^28→Ala]	–
–	2.94	SVSEIQLMHNLGKHLNSMARVEWLRKKLQDV-NH2 [Glu^19→Ala]	–
–	2.05	CC[C@H](C)[C@H](NC(=O)[C@H](CCC(=O)O)NC(=O)[C@H](CO)NC(=O)[C@@H](NC(=O)[C@@H](N)CO)C(C)C)C(=O)N[C@@H](CCC(N)=O)C(=O)N[C@@H](CC(C)C)C(=O)N[C@@H](CCSC)C(=O)N[C@@H](Cc1c[nH]cn1)C(=O)N[C@@H](CC(N)=O)C(=O)N[C@@H](CC(C)C)C(=O)NCC(=O)N[C@@H](CCCCN)C(=O)N[C@@H](Cc1c[nH]cn1)C(=O)N[C@@H](CC(C)C)C(=O)N[C@@H](CC(N)=O)C(=O)N[C@@H](CO)C(=O)N[C@@H](CCSC)C(=O)N[C@@H](CCC(=O)O)C(=O)N[C@@H](Cc1ccc(NC(=N)N)cc1)C(=O)N[C@H](C(=O)N[C@@H](CCC(=O)O)C(=O)N[C@@H](Cc1c[nH]c2ccccc12)C(=O)N[C@@H](CC(C)C)C(=O)N[C@@H](CCCNC(=N)N)C(=O)N[C@@H](CCCCN)C(=O)N[C@@H](CCCCN)C(=O)N[C@@H](CC(C)C)C(=O)N[C@@H](CCC(N)=O)C(=O)N[C@@H](CC(=O)O)C(=O)N[C@H](C(N)=O)C(C)C)C(C)C [Arg^20→Gph] (H-SVSEIQLMHNLGKHLNSME[Phe(4-guanidino)]VEWLRKKLQDV-NH2; N-terminus assumed)	–
–	1.93	SVSEIQLMHNLGKHLNSMERVEWLRKKLADV-NH2 [Gln^29→Ala]	–
–	1.23	SVSEIQLMHNLGKHLNSMRRVEWLRKKLQDV-NH2 [Glu^19→Arg]	–
–	0.619 ± 0.075	SVSEIQLMHNLGKHLNSMARVAWLRKKLQDV-NH2 [Glu^19,22→Ala,Ala]	–
–	0.36 ± 0.019	SVSEIQLMHNLGKHLNSMRRVAWLRKKLQDV-NH2 [Glu^19,22→Arg,Ala]	–
